Data from PubChem BioAssay (NCI).
Values joined by “and” are separate entries in the source; they are usually repeats but may differ in a detail not shown here. Equal entries are not always repeated.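 Compound exposure: 48 hours, 5 concentrations, 96-well plates. At the GI50, growth is halved. TGI: concentration producing complete growth inhibition.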

Experiments:
Test in all cases: growth of human tumour cells (NCI), 48 h
[1] = system: SK-OV-3 ovarian
[2] = system: SW-620 colon
[3] = system: SF-268 CNS
[4] = system: DLD-1 colon
[5] = system: CCRF-CEM leukemia
[6] = system: DMS 114 small cell lung
[7] = system: UO-31 renal
[8] = system: OVCAR-5 ovarian
[9] = system: M19-MEL melanoma
[10] = system: MCF7 breast

SMILES | TGI [1] | TGI [2] | TGI [3] | TGI [4] | TGI [5] | TGI [6] | TGI [7] | TGI [8] | TGI [9] | GI50 [1] | GI50 [2] | GI50 [3] | GI50 [4] | GI50 [5] | GI50 [6] | GI50 [7] | GI50 [8] | GI50 [9] | GI50 [10] | TGI [10]
C=C1c2[nH]c3ccccc3c2CC(C(=O)O)N1C(O)c1ccc(S(=O)(=O)O)cc1 (configuration not stated) | > 100 µM | > 100 µM | > 100 µM | > 100 µM | > 100 µM | > 100 µM | > 100 µM | > 100 µM | > 100 µM |  |  |  |  |  |  |  |  |  |  | 
CCc1nc2ccccc2c(=O)n1/N=C(\N=Nc1ccc(Cl)cc1)c1ccccc1 | 62 µM | > 100 µM | 95.3 µM | > 100 µM | > 100 µM | 59.3 µM | 76.8 µM | > 100 µM | > 100 µM |  |  |  |  |  |  |  |  |  |  | 
O=C1NC(=O)C2C1C1C=C3c4ccccc4N(c4ccccc4)C32[C@H]2C(=O)NC(=O)[C@@H]12 (some centres not stated) | > 100 µM | > 100 µM | > 100 µM | > 100 µM | > 100 µM | > 100 µM | > 100 µM | > 100 µM | > 100 µM |  |  |  |  |  |  |  |  |  |  | 
COC1=CC(=O)OC(/C=C(C)/C=C/C2=C(C)CCCC2(C)C)C1 (configuration not stated) | > 100 µM | > 100 µM | > 100 µM | > 100 µM | > 100 µM | > 100 µM | > 100 µM | > 100 µM | > 100 µM |  |  |  |  |  |  |  |  |  |  | 
CC(=O)SC(SC(C)=O)SC(C)=O | > 100 µM | > 100 µM | > 100 µM | > 100 µM | 81 µM | > 100 µM | > 100 µM | > 100 µM | > 100 µM |  |  |  |  |  |  |  |  |  |  | 
Fc1ccc(C2SCc3nc4ccccc4n32)cc1F (configuration not stated) | > 100 µM | > 100 µM | > 100 µM | > 100 µM | 97 µM | 77.8 µM | 41 µM |  | > 100 µM |  |  |  |  |  |  |  |  |  |  | 
CCCCN(CCCC)CC(C(=O)Nc1ccc([N+](=O)[O-])cc1[N+](=O)[O-])/C(C)=N\NC(=O)C[N+](C)(C)C (configuration not stated) | > 100 µM |  | > 100 µM | > 100 µM | > 100 µM | > 100 µM | > 100 µM | > 100 µM | > 100 µM |  |  |  |  |  |  |  |  |  |  | 
NC(=S)N/N=C(\CCC(=O)Nc1ccccc1[N+](=O)[O-])CC(=O)c1ccco1 | > 100 µM | > 100 µM | > 100 µM | > 100 µM | > 100 µM | > 100 µM | > 100 µM | > 100 µM | > 100 µM |  |  |  |  |  |  |  |  |  |  | 
NC(CO)c1ccc(OCc2ccccc2)cc1 (configuration not stated) | > 100 µM | > 100 µM | > 100 µM | > 100 µM | > 100 µM | > 100 µM | > 100 µM | > 100 µM | > 100 µM |  |  |  |  |  |  |  |  |  |  | 
CCC1c2cc3n(c(=O)c2COC1O)Cc1c-3nc2ccccc2c1Cl (configuration not stated) | > 100 µM | > 100 µM | > 100 µM | > 100 µM | > 100 µM | > 100 µM | > 100 µM | > 100 µM | > 100 µM |  |  |  |  |  |  |  |  |  |  | 
O=c1c(O)cc2c(O)oc3c(=O)c(O)c(O)c4c(O)oc1c2c43 | > 100 µM | > 100 µM | > 100 µM | > 100 µM | > 100 µM | 67.7 µM | > 100 µM | > 100 µM | 25 µM |  |  |  |  |  |  |  |  |  |  | 
Cc1ccc(NC(=O)/C(=N\NC(N)=S)C(C#N)c2ccccc2C)cc1C (configuration not stated) | > 100 µM | > 100 µM | > 100 µM | > 100 µM | > 100 µM | > 100 µM | > 100 µM | > 100 µM | > 100 µM |  |  |  |  |  |  |  |  |  |  | 
O=C(N/C=C/C=C/Sc1ccccc1)OCc1ccccc1 | 64.6 µM | 32.8 µM | 34.2 µM | 29 µM | > 100 µM | 32.3 µM | 42 µM | 33.1 µM | 31.5 µM |  |  |  |  |  |  |  |  |  |  | 
O=C([O-])CCc1ccccc1.O=C([O-])CCc1ccccc1.O=C([O-])CCc1ccccc1.O=C([O-])CCc1ccccc1.[Mo+2].[Mo+2] | > 100 µM | > 100 µM | > 100 µM | > 100 µM | > 100 µM | > 100 µM | > 100 µM | > 100 µM | > 100 µM | > 100 µM | > 100 µM | > 100 µM | > 100 µM | > 100 µM | > 100 µM | > 100 µM | > 100 µM | > 100 µM |  | 
CCOC(=O)Nc1ccc2c(c1)N(C(=O)CCN(CC)CC)c1ccccc1S2 | 70.7 µM and 183 µM | 59.3 µM and 122 µM | > 74.6 µM and 128 µM | > 87.6 µM and 105 µM | > 91.2 µM and 66.9 µM | 40.6 µM and 99.6 µM | > 89.5 µM | 99.9 µM and 178 µM | > 71.1 µM and 124 µM | 106 µM | 52.5 µM | 55 µM | 32.9 µM | 17 µM | 36.2 µM |  | 101 µM | 56.2 µM | 31.3 µM | > 94.3 µM
